± gives the expanded uncertainty stated by the source.
Experiments:
[1] = 101.33 kPa, Liquid
[2] = Boiling temperature at pressure P; conditions: 101.33 kPa; Liquid; Distillation
[3] = refractive index (Na D-line) (dimensionless); conditions: 293.15 K; 101.33 kPa; Liquid; Standard Abbe refractometry

| SMILES | mass density ([1]; 298.15 K) [kg/m3] | Boiling temperature at pressure P [2] [°C] | refractive index [3] | mass density ([1]; 293.15 K) [kg/m3] |
| --- | --- | --- | --- | --- |
| CC(=O)O [acetic acid] | 1044.3 ± 0.26 | 117.70 ± 0.5 | 1.3721 ± 0.0007 |  |
| O=CO [formic acid] |  | 109.90 ± 2 | 1.3711 ± 0.0008 | 1218.5 ± 2.5 |
| CC(C)c1ccccc1 [isopropylbenzene] | 863.75 ± 0.85 | 152.39 ± 0.5 | 1.4913 ± 0.0008 |  |
| CCC(=O)O [propanoic acid] | 988 ± 0.53 | 141.00 ± 0.5 | 1.3811 ± 0.0008 |  |

Source: the NIST ThermoML archive (doi:10.1016/j.fluid.2006.07.011)
